In US20050245456A1, “Combination therapy to prevent and treat diarrhea induced by cancer treatment” (Pfizer Inc, priority 2004, published 2005):

Experiments:
[1] = patients who experienced this side-effect during a previous course of chemotherapy; Cascinu et al. 1994; cited from earlier work
[2] = cited from earlier work
[3] = Phase 1 trial: diarrhea induced by the isothiazole derivative; type: in vivo, human; details: almost all subjects at doses greater than 160 mg/day, within the first few days
Experimental: Susceptible subjects are encouraged to adhere to a daily schedule of prophylactic anti-diarrheal agents, such as Loperamide, Octreotide, Loperamide, Tamoxifen, a bulking agent, or an anti-estrogen. To treat the diarrhea in these patients, a therapeutically effective amount of 3-(4-Bromo-2,6-difluoro-benzyloxy)-5-[3-(4-pyrrolidin-1-yl-butyl)-ureido]-isothiazole-4-carboxylic acid amide HCl is administered to a patient in need of such therapy, prior to, simultaneously or sequentially with a therapeutically effective amount of Loperamide, Octreotide, Loperamide, Tamoxifen, a bulking agent, or an anti-estrogen.

[4] = tested on: MCF-7 breast cancer cells; details: Otto et al. 1996; cited from earlier work

Compound: C[C@@H](O)[C@@H]1NC(=O)[C@H](CCCCN)NC(=O)[C@@H](Cc2c[nH]c3ccccc23)NC(=O)[C@H](Cc2ccccc2)NC(=O)[C@@H](NC(=O)[C@H](N)Cc2ccccc2)CSSC[C@@H](C(=O)N[C@H](CO)[C@@H](C)O)NC1=O [Octreotide]
- prevention of diarrhea associated with cisplatin [1]: active in preventing diarrhea
- treatment of diarrhea after chemotherapy with 5-fluorouracil ([2]; 11 patients with colorectal cancer, Kennedy et al. 1990): encouraging results
- efficacy versus Loperamide in therapy of 5-fluorouracil-induced diarrhea ([2]; randomized trial, Cascinu et al. 1993): more effective than Loperamide

Compound: NC(=O)c1c(OCc2c(F)cc(Br)cc2F)nsc1NC(=O)NCCCCN1CCCC1 [3-(4-Bromo-2,6-difluoro-benzyloxy)-5-[3-(4-pyrrolidin-1-yl-butyl)-ureido]-isothiazole-4-carboxylic acid amide]
- diarrhea developed by subjects (CTC grade) [3]: Grade 1 or 2 diarrhea

Compound: CC/C(=C(\c1ccccc1)c1ccc(OCCN(C)C)cc1)c1ccccc1 [Tamoxifen]
- effect on cell cycle progression [4]: blocks cell cycle progression in G0/G1
